Activity calls are given as the source filed them.
How the values were obtained:
[1] = M. tuberculosis H37Rv growth inhibitors, H37Rv strain (AID 1626); type: functional
Estrogen receptor = target: T1, Estrogen receptor (Homo sapiens, UniProt P03372);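 further: potency for inhibiting coactivator peptide recruitment to the receptor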
T1 sequence (P03372 whole entry): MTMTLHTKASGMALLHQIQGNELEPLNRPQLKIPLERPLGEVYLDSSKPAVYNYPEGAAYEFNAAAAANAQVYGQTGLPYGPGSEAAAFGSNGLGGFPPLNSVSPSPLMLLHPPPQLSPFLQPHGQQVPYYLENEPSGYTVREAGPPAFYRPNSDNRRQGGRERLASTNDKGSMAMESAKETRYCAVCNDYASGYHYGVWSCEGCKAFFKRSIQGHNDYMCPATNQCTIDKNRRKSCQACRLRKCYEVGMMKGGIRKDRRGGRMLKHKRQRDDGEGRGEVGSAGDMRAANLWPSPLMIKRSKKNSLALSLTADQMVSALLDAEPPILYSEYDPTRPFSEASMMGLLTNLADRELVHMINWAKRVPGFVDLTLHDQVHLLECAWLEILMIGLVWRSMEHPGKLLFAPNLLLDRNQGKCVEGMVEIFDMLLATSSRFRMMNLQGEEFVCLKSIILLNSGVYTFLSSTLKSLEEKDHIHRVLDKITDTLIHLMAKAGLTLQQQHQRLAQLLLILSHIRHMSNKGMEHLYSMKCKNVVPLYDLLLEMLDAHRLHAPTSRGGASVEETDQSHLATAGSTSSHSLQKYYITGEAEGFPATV

Estrogen receptor beta [2] = target: T2, Estrogen receptor beta (Homo sapiens, UniProt Q92731); experiment: blockers of SRC-3 recruitment to ERβ – biochemical, ELISA, streptavidin-HRP readout, orthogonal assay, confirmation (AID 1060)
Estrogen receptor beta [3] = target: T2, Estrogen receptor beta
[4] = target: T3, Mannose-6-phosphate isomerase (Homo sapiens, UniProt P34949); experiment: MPI inhibition at elevated mannose 6-phosphate – biochemical, fluorescence intensity, high mannose 6-phosphate, primary screen (AID 1220)
T3 sequence (P34949 whole entry): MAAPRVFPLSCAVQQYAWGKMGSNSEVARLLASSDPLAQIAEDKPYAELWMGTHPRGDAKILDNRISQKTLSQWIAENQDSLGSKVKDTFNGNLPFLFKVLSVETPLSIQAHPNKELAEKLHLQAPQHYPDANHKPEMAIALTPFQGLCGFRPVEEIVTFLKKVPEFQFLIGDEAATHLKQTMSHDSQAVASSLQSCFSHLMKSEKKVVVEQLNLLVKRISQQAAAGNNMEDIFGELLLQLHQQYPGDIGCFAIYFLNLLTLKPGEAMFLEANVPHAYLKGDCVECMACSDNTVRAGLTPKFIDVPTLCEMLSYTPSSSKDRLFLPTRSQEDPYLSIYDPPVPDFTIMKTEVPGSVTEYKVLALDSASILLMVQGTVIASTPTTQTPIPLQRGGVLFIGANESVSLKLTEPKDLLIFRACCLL

[5] = general mammalian cell viability loss – inhibitor set, cherry-pick, set 2, cytotoxicity control for miR-122 modulator project, dose response (AID 720697); type: functional, cell-based
[6] = target: Disintegrin and metalloproteinase domain-containing protein 17 (Homo sapiens, UniProt P78536); experiment: exosite inhibitors of ADAM17, dose response, biochemical (AID 743260)
[7] = inhibition of ADAM10 peptide cleavage – biochemical, FRET peptide substrate, recombinant human ADAM10, selectivity assay for ADAM17 exosite inhibitor project, dose response (AID 743259);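 further: ADAM10 enzyme cleaving a FRET peptide substrate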
[8] = HIV-1 Vif–A3G interaction blockers – biochemical, TR-FRET, GST-Vif 1-94, biotin-A3G peptide, dose response retest, primary screen (AID 1117319); type: functional;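 further: TR-FRET signal of purified GST-Vif binding a biotinylated A3G peptide; inhibitors lower the FRET signal by blocking Vif and A3G binding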
cells [9] = type: functional, cell-based
cells [10] = type: functional, cell-based; remark: listed apart in the source
cells [11] = type: functional, cell-based; remark: listed apart in the source
[12] = target: Induced myeloid leukemia cell differentiation protein Mcl-1 (Homo sapiens, UniProt Q07820); type: functional
[13] = NIH-3T3 fibroblast cytotoxicity, dose response, cytotoxicity control, cell-based, fluorescence, Alamar Blue, secondary assay (AID 2327); type: functional;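 further: NIH-3T3 mouse fibroblasts cultured with fluconazole at 8 µg/mL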
Streptococcus = experiment: GAS UMAA2166 growth inhibition – luminescence, BacTiterGlo, counter-screen for streptokinase expression inhibitor project, dose response (AID 1915); type: functional, organism-based;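 further: potency for reduction of bacterial viability or growth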
cells [14] = type: functional, cell-based; remark: listed apart in the source
[15] = alpha-synuclein stem-loop luciferase translation blockers – H4 neuroglioma cells, luminescence, confirmation (AID 1988); type: functional, cell-based
Vero = experiment: viability of Vero cells under compound – cytotoxicity control for flavivirus capping enzyme inhibitors (AID 588742); type: functional; conditions: Chlorocebus sabaeus
[16] = fluconazole-exposed Candida albicans growth modulators – fluorescence, retest, confirmation (AID 2467); type: functional, cell-based
[17] = viability loss in THP-1 monocytes – THP-1 cells, cytotoxicity control for Vif-APOBEC3G degradation inhibitor project, dose response (AID 1117359); type: functional; conditions: THP-1
[18] = Luminescence Cell-Based Dose Response HTS to Identify Inhibitors of 5'UTR Stem-Loop Driven Prion Protein mRNA Translation in H4 Neuroglioblastoma Cells. [Related pubchem assays: 1827 (Project Summary), 1813 (Primary HTS)]; type: functional
[19] = luciferase reporter signal suppression in cells – H4 neuroglioma cells, luminescence, dose response (AID 1990); type: functional, cell-based
[20] = tested on: Streptococcus sp. 'group A'; experiment: Streptococcus pyogenes SK(-)GAS viability under kanamycin – luminescence, BacTiterGlo, confirmation, counter-screen for streptokinase expression inhibitor project, dose response (AID 1900); type: functional, organism-based
Genome polyprotein = Genome polyprotein (dengue virus type 2, UniProt P29990); experiment: flavivirus cap methylation enzyme inhibition – biochemical, confirmation dose response, primary screen (AID 588689); type: functional
Genome polyprotein, sequence (P29990 2492-3391 limits assumed): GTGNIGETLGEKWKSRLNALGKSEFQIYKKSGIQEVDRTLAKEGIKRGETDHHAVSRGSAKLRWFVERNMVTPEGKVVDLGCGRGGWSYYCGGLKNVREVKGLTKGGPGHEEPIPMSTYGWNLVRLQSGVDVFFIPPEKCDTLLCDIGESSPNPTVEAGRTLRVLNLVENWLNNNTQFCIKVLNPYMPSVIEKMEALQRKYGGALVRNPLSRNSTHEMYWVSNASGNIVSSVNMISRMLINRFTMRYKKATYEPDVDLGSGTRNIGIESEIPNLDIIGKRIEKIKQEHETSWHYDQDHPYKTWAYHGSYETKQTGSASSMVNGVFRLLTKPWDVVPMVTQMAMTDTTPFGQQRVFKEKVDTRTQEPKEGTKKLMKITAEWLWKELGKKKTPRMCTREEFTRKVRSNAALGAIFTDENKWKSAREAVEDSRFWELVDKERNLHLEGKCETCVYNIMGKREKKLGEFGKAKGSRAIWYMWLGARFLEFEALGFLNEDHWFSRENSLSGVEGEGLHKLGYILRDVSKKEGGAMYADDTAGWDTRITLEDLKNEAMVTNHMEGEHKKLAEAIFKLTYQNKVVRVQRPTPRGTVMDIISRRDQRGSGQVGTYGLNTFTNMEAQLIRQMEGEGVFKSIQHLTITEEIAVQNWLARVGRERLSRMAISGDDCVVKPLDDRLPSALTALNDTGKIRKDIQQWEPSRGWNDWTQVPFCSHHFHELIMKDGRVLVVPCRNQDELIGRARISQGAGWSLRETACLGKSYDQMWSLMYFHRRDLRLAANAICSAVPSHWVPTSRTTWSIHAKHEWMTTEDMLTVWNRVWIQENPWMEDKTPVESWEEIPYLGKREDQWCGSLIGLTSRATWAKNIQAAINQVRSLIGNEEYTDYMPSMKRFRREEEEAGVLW

Disintegrin and metalloproteinase domain-containing protein 17, sequence (P78536 whole entry, the tested form may be a part): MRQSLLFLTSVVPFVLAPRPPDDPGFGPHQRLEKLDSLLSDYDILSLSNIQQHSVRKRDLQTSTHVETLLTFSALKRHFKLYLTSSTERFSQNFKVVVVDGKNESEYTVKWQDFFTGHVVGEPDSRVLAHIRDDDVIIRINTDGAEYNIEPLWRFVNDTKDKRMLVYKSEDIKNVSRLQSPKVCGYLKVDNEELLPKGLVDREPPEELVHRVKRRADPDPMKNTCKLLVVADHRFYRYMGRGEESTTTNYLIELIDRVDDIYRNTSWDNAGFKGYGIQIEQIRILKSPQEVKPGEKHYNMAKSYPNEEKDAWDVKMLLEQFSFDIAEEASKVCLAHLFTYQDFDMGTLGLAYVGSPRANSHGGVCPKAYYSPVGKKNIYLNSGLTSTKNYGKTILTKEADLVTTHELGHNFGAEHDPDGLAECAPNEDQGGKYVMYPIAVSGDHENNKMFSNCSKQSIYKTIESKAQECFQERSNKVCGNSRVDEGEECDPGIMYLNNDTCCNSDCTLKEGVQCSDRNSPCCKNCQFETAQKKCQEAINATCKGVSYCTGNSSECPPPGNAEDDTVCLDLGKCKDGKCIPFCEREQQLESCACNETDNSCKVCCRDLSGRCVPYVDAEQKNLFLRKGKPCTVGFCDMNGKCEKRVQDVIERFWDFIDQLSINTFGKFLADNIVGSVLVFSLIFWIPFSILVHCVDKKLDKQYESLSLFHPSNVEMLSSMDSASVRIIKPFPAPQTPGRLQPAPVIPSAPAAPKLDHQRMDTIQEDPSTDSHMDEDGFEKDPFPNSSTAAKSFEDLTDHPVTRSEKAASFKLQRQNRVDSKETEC
T2 sequence (Q92731 whole entry): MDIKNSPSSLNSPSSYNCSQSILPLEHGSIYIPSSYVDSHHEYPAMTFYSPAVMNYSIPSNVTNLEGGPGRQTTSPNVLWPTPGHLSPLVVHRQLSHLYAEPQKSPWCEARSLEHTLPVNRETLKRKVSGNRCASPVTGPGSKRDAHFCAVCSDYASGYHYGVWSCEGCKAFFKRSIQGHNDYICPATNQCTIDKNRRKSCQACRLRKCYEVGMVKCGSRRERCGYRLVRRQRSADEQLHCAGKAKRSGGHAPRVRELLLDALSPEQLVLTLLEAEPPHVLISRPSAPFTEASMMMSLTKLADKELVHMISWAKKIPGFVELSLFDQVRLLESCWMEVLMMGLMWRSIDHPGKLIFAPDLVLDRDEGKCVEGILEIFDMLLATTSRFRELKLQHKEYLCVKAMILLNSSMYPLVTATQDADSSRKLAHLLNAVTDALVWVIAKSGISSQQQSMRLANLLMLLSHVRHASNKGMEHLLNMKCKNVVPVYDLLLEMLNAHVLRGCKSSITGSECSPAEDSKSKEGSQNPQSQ
Induced myeloid leukemia cell differentiation protein Mcl-1, sequence (Q07820 whole entry): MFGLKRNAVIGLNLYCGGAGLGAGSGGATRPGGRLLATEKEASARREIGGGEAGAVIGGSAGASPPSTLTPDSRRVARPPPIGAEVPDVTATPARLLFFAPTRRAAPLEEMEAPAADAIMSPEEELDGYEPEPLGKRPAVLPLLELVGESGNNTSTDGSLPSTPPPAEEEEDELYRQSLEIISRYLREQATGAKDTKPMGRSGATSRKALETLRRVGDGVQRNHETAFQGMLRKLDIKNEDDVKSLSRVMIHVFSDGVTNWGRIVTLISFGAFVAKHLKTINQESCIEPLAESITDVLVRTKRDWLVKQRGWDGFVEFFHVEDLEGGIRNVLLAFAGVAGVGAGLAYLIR

COc1ccc(OCc2nn3c(-c4cccc(OC)c4)nnc3s2)cc1
IC50 [1]: > 100 µM (active)

Cn1c(C(=O)Nc2ccc3c(c2)OCO3)cc2c(=O)n(C)c3ccccc3c21
IC50 (Estrogen receptor): 22.6 µM (active)
IC50 (Estrogen receptor beta [2]): 0.0468 µM (not active)
IC50 (Estrogen receptor beta [3]): > 50 µM (not active)

Cc1sc2nc3ccc(N4CCCC4)nn3c(=O)c2c1C
IC50 [4]: > 50 µM (not active)

CCCCc1cc(=O)oc2cc(C)cc(OC(C)C(=O)O)c12 (stereo unspecified)
AC50 [5]: 1.08 µM (active)

CN(C)S(=O)(=O)c1cccc(NC(=O)COC(=O)c2cccc(S(=O)(=O)N3CCc4ccccc4C3)c2)c1
IC50 [6]: > 69.5 µM (inactive)
IC50 [7]: > 69.5 µM (inactive)

O=C1N(Cc2cccnc2)C[C@@H]2C[C@@H](c3ccc4nsnc4c3)N3CCC[C@@]123
IC50 [8]: > 100 µM (active)

Cc1cccc(N2CCN(C(=O)c3ccc(C[S+]([O-])Cc4ccc(Cl)cc4)o3)CC2)c1C (stereo unspecified)
IC50 [6]: > 69.5 µM (inactive)
IC50 [7]: > 7.72 µM (active)

Cn1ccnc1Sc1ccc(/C=N/NC(=O)c2ccccc2O)cc1[N+](=O)[O-]
IC50 [8]: > 100 µM (active)

O=C(C[C@@H]1C=C[C@H](NC(=O)Cc2ccccn2)[C@@H](CO)O1)NCCc1ccccc1
EC50 (cells [9]): > 29.9 µM (inactive)
IC50 (cells [10]): > 29.9 µM (inactive)

CO[C@H]1CN(C)C(=O)c2cc(NC(=O)c3ccccc3F)ccc2OC[C@@H](C)N(C)C[C@@H]1C
AC50 [5]: 10.6 µM (active)

O=C(CSc1nnc(COc2ccccc2)n1-c1ccc(Cl)cc1)Nc1ccccc1-c1ccccc1
IC50 [6]: > 69.5 µM (inactive)
IC50 [7]: > 69.5 µM (inactive)

Cc1cc(SCC(=O)N/N=C/c2ccc(O)c(O)c2O)c(C)cc1Br
EC50 (cells [11]): 11.6 µM (active)
IC50 [12]: 5.65 µM (active)
EC50 [13]: > 150 µM (inconclusive)
EC50 (Streptococcus): 6.34 µM (active)
EC50 (cells [14]): > 350 µM (not active)
IC50 [4]: > 50 µM (not active)
EC50 [15]: 26.7 µM (active)
CC50 (Vero): > 40 µM (active)
EC50 [16]: 1.45 µM (active)
CC50 [17]: 2.57 µM (active)
EC50 [18]: 13.9 µM (active)
EC50 [19]: 11 µM (active)
EC50 [20]: 3.27 µM (active)
IC50 (Genome polyprotein): 17.4 µM (active)
